{
  "source": "patent US20250049733A1",
  "about": "“PHARMACEUTICAL COMPOSITION FOR THE TREATMENT OF INFECTIOUS RESPIRATORY DISEASES CAUSED BY INFLUENZA AND SARS-COV-2, AMONG OTHERS” (ALPARIS, S.A. DE C.V., priority 2021, published 2025)",
  "origin": "cited, not measured here",
  "key": {"[1]": {"system": "SARS-CoV2 viruses"}, "[2]": {"system": "tumor necrosis factor-alpha (TNF-α) and interleukin-6 (IL-6)", "settings": "randomized controlled trials"}, "[3]": {"system": "Hepatitis"}, "[4]": {"system": "Herpes simplex virus"}, "[5]": {"settings": "in vivo"}, "[6]": {"system": "Respiratory Syncytal Virus (RSV)"}, "[7]": {"system": "influenza"}, "[8]": {"system": "rheumatoid arthritis", "settings": "8 weeks of treatment with 1 g of curcumin daily; meta-analysis"}},
  "data": [
    {"smiles": "COc1cc(/C=C/C(=O)CC(=O)/C=C/c2ccc(O)c(OC)c2)ccc1O", "note": "[curcumin, (1E,6E)-1,7-bis(4-hydroxy-3-methoxyphenyl)-1,6-heptadiene-3,5-dione]", "values": [
      {"measurement": "IC50, antiviral action against SARS-CoV2", "setting": "[1]", "result": 7.9, "unit": "µg/mL"},
      {"measurement": "secretion of TNF-α and IL-6", "setting": "[2]", "result": "significantly reduces"},
      {"measurement": "IC50, antiviral action against Hepatitis", "setting": "[3]", "result": 1.68, "unit": "µg/mL"},
      {"measurement": "IC50, antiviral action against Herpes simplex virus", "setting": "[4]", "result": 11.05, "unit": "µg/mL"},
      {"measurement": "half-life", "setting": "[5]", "result": "about 8 hours"},
      {"measurement": "IC50, antiviral action against Respiratory Syncytal Virus (RSV)", "setting": "[6]", "result": 10, "unit": "µg/mL"},
      {"measurement": "IC50, antiviral action against influenza", "setting": "[7]", "result": 0.17, "unit": "µg/mL"},
      {"measurement": "symptoms associated with inflammation in rheumatoid arthritis", "setting": "[8]", "result": "can reduce symptoms associated with inflammation"}
    ]}
  ]
}
